# Columns and labels:
# [1] = system: blackgrass; assay: Test C preemergence; format: in vivo, Alopecurus myosuroides; details: for Blackgrass plant response rating: preemergence
# How it was run: (§1)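 Visual ratings on a 0–100 scale (100 = complete control) were made versus untreated controls after 13–15 greenhouse days. Chemicals in a surfactant-containing non-phytotoxic solvent were applied either preemergence to seeds in loam–sand soil or postemergence to 1- to 4-leaf plants 2–18 cm tall.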
# [2] = system: pigweed; assay: Test A preemergence; format: in vivo, Amaranthus retroflexus
# How it was run: (§2)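 Pre- and postemergence greenhouse screen. Soil: loam + sand. Spray carrier: solvent mixture, non-phytotoxic, with surfactant. Post timing at 1–2 leaves, height 2–10 cm. Readout: visual injury on a 0–100 scale roughly 10 days after application, untreated plants as reference.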
# [3] = system: ragweed; assay: Test C preemergence; format: in vivo, Ambrosia elatior; details: preemergence
# How it was run: as §1
# [4] = system: johnsongrass; assay: Test C preemergence; format: in vivo, Sorghum halepense; details: preemergence
# How it was run: as §1
# [5] = system: corn; assay: Test C postemergence; format: in vivo, Zea mays
# How it was run: as §1
# [6] = system: pigweed; assay: Test A postemergence; format: in vivo, Amaranthus retroflexus; details: 0 to 100 scale where 0 is no effect and 100 is complete control
# How it was run: as §2
# [7] = system: giant foxtail; assay: Test C preemergence; format: in vivo, Setaria faberii; details: for Foxtail, Giant plant response rating: preemergence
# How it was run: as §1
# [8] = system: johnsongrass; assay: Test C postemergence; format: in vivo, Sorghum halepense
# How it was run: as §1
# [9] = system: large (Lg) crabgrass; assay: Test C postemergence; format: in vivo, Digitaria sanguinalis
# How it was run: as §1
# [10] = system: large (Lg) crabgrass; assay: Test A preemergence; format: in vivo, Digitaria sanguinalis; details: 0 to 100 scale where 0 is no effect and 100 is complete control
# How it was run: as §2
# [11] = system: oilseed rape; assay: Test C postemergence; format: in vivo, Brassica napus
# How it was run: as §1
# [12] = system: large (Lg) crabgrass; assay: Test A postemergence; format: in vivo, Digitaria sanguinalis; details: 0 to 100 scale where 0 is no effect and 100 is complete control
# How it was run: as §2
# [13] = system: waterhemp; assay: Test C postemergence; format: in vivo, Amaranthus rudis
# How it was run: as §1
# [14] = system: giant foxtail; assay: Test A postemergence; format: in vivo, Setaria faberii; details: 0 to 100 scale where 0 is no effect and 100 is complete control
# How it was run: as §2
# [15] = system: velvetleaf; assay: Test C postemergence; format: in vivo, Abutilon theophrasti
# How it was run: as §1
# [16] = 16 g ai/ha, scale 0 to 100 (0 no effect, 100 complete control)
# [17] = 62 g ai/ha, scale 0 (no effect) to 100 (complete control)
# [18] = 125 g ai/ha, scale 0 (no effect) to 100 (complete control)
# [19] = Preemergence, 31 g ai/ha, scale 0 to 100, 0 no effect, 100 complete control
# [20] = 16 g ai/ha, postemergence, 0 is no effect, 100 is complete control
# [21] = 31 g ai/ha, postemergence, visual rating, scale 0 to 100 (0 no effect, 100 complete control), 13 to 15 days
# [22] = 125 g ai/ha, postemergence, visual rating, scale 0 to 100 (0 no effect, 100 complete control)
# [23] = Postemergence, 62 g ai/ha, scale 0 to 100 (0 no effect, 100 complete control)
compound,measurement,setting,value
FC(F)(F)c1cnn(-c2c(Cl)cccc2Oc2ncc(Cl)cn2)c1 [Compound 167],Blackgrass plant response rating,[1]; [16],30
same,Blackgrass plant response rating,[1]; [17],90
same,Blackgrass plant response rating,[1]; [18],90
same,"Plant response rating, Blackgrass",[1]; [19],30
same,Pigweed plant response rating (0 to 100 scale),[2]; 125 g ai/ha,100
same,Pigweed plant response rating,"[2]; 500 g ai/ha, 0 to 100 scale where 0 is no effect and 100 is complete control",100
same,Ragweed plant response rating,[3]; [16],15
same,Ragweed plant response rating,[3]; [17],15
same,Ragweed plant response rating,[3]; [18],20
same,Johnsongrass plant response rating,[4]; [16],5
same,Johnsongrass plant response rating,[4]; [17],80
same,Johnsongrass plant response rating,[4]; [18],95
same,"Plant response rating (0 to 100), Corn",[5]; [20],5
same,Corn plant response rating,[5]; [21],5
same,"Plant response rating, Corn",[5]; [22],15
same,"Plant response rating, Corn",[5]; [23],10
same,Pigweed plant response rating,[6]; 125 g ai/ha,100
same,"Plant response rating, Pigweed",[6]; 500 g ai/ha,100
same,"Foxtail, Giant plant response rating",[7]; [16],35
same,"Foxtail, Giant plant response rating",[7]; [17],100
same,"Foxtail, Giant plant response rating",[7]; [18],100
same,"Plant response rating, Foxtail, Giant",[7]; [19],95
same,"Plant response rating (0 to 100), Johnsongrass",[8]; [20],5
same,Johnsongrass plant response rating,[8]; [21],15
same,"Plant response rating, Johnsongrass",[8]; [22],25
same,"Plant response rating, Johnsongrass",[8]; [23],15
same,"Plant response rating (0 to 100), Crabgrass, Large",[9]; [20],5
same,"Crabgrass, Large plant response rating",[9]; [21],5
same,"Plant response rating, Crabgrass, Large",[9]; [22],10
same,"Plant response rating, Crabgrass, Large",[9]; [23],5
same,"Plant response rating, Crabgrass, Large",[10]; 125 g ai/ha,100
same,"Crabgrass, Large plant response rating",[10]; 500 g ai/ha,100
same,"Plant response rating (0 to 100), Oilseed Rape",[11]; [20],15
same,Oilseed Rape plant response rating,[11]; [21],50
same,"Plant response rating, Oilseed Rape",[11]; [22],70
same,"Plant response rating, Oilseed Rape",[11]; [23],85
same,"Crabgrass, Large plant response rating",[12]; 125 g ai/ha,80
same,"Plant response rating, Crabgrass, Large",[12]; 500 g ai/ha,90
same,"Plant response rating (0 to 100), Waterhemp",[13]; [20],65
same,Waterhemp plant response rating,[13]; [21],75
same,"Plant response rating, Waterhemp",[13]; [22],98
same,"Plant response rating, Waterhemp",[13]; [23],85
same,"Foxtail, Giant plant response rating",[14]; 125 g ai/ha,90
same,"Plant response rating, Foxtail, Giant",[14]; 500 g ai/ha,90
same,"Plant response rating (0 to 100), Velvetleaf",[15]; [20],35
same,Velvetleaf plant response rating,[15]; [21],40
same,"Plant response rating, Velvetleaf",[15]; [22],70
same,"Plant response rating, Velvetleaf",[15]; [23],40

# From patent US9695155B2, “Herbicidal substituted pyrimidinyloxy benzene compounds” (E. I. DU PONT DE NEMOURS AND COMPANY, priority 2013, dated 2017)
